Experimental data: patent publication US20160008339A1, “PSORALEN DERIVATIVES FOR PREVENTING OR TREATING HEART FAILURE OR CARDIAC HYPERTROPHY” (MAX-DELBRUCK-CENTRUM FUR MOLEKULARE MEDIZIN, priority 2012, published 2016)
“Also recorded” adds a separate entry of the source.

Assays:
[1] = test system: Gα12 coupled and AKAP-Lbc mediated activation of RhoA; experiment: Rhotekin-based precipitation of RhoA-GTP, HEK293 transfected with Gα12QL / AKAP-Lbc; format: cell-based, human; conditions: 50 μmol/L, 30 min, vs DMSO
Description: HEK293 cells were seeded in 6-well plates. One day later the cells were transfected with the following plasmid DNAs:
After additional 24 hours the cells were treated with compound 31413 (50 μmol/L) or DMSO for 30 min at 37° C. Subsequently, the cells were lysed in precipitation buffer (50 mM Tris pH 7.4, 150 mmol/L NaCl, 4 mmol/L MgCl2; 10% v/v glycerol, 1% octylphenoxypolyethoxyethanol [IPEGAL]) and centrifugated 20000 g for two minutes to remove cell debris. 40 μl of the lysate were taken for the determination of the total RhoA content. The residual lysate was incubated with 40 μl GSH-sepharose coupled GST-rhotekin for one hour at 4° C. Then, the GSH-sepharose was washed twice with precipitation buffer, enriched with SDS-PAGE loading buffer and heated 5 min at 90° C. […] The ratio between total RhoA and Rho-GTP was densitometrically determined.
The activation state of RhoA was determined with a Rho binding region of the rhotekin protein, a Rho effector, immobilised on a sepharose bead in the presence and absence of compound 31413. […]
GTP-bound RhoA was detected by rhotekin precipitation (FIG. 3). The precipitation of RhoA from transfected HEK293 cells was performed with a rhotekin sepharose, and analysed with SDS-PAGE and immunoblotting with a RhoA specific antibody. […] The precipitated RhoA-GTP was separated with SDS-PAGE, blotted and detected with a specific anti-RhoA antibody.

[2] = test system: primary neonatal rat cardiomyocytes; experiment: Beat rate of neonatal cardiomyocytes counted by light microscope; format: cell-based; conditions: for beat rate after PE stimulation: PE 6 h
Description: For cultivation of primary neonatal rat cardiomyocytes, hearts of two to three days old rats were obtained and quickly stored on ice in ADS buffer (116.4 mM NaCl, 5.4 mM KC, 5.6 mM dextrose, 10.9 mM NaH2PO4, 405.7 μmol/L MgSO4, 20 mM Hepes, pH 7.3). Under sterile conditions, the hearts were cleaned from blood and vessels, cut into small pieces and transferred into falcon tubes. The ADS buffer was exchanged against an enzyme solution (see table below). Within four cycles each with five ml enzyme solution and an enzyme mix comprising collagenase and pancreatin, isolated cells were released from the tissue (12 min at 37° C. in a water bath with approx. 220 rpm).
The supernatant with the isolated cells was collected, transferred in fetal calf serum (FCS, 2.5 ml on ice) and subsequently centrifugated in FCS (100 g for 3 min at 4° C.). The supernatant of the centrifugation was discarded and the pellet was resuspended in 5 ml cold plating medium. After an additional centrifugation, the pellet was resuspended in 15 ml medium, transferred into a dish and incubated for two hours at 37° C. to allow the settling of the fibroblasts. The cardiomyocytes in the supernatant were counted with a Scepter Handheld Automated Cell Counter and transferred in dishes coated with gelatine. On the following day the medium was changed.
The neonatal cardiomyocytes were seeded in 6-well plates with 1.5×10^6 cell per well. The stimulation with 100 μmol/L phenylephrine (PE) was performed for six or twenty four hours at 37° C. Untreated cells served as control. The effect of compound 31413 on the α-adrenergic stimulation of the cardiomyocytes was determined after incubation with the compound for three hours. To do this, the contraction of the cells was counted within a minute and different conditions were compared.
Isolated neonatal cardiomyocytes were used to investigate the relation between AKAP-Lbc induced RhoA activation and the contractility of the heart. After a chronic stimulation of the α1-adreno receptors (AR) with the specific agonist PE for six hours, the beats of the cardiomyocytes were counted over a period of 15 s and a beat rate per minute (bpm) was calculated. An increase of the beat rate of the cardiomyocytes from 100 bpm to 160 beats per minute could be observed. […] The beat rate of neonatal cardiomyocytes was counted with help of a light microscope.

[3] = test system: primary neonatal rat cardiomyocytes; experiment: Beat frequency of neonatal cardiomyocytes by Fluo-4 calcium measurement; format: cell-based
Description: The frequency of contraction could be determined in a similar manner with a calcium sensor (Fluo-4). In a laser-scanning microscope, Fluo-4 was excited with an argon laser (488 nm) and the emission signals were detected and collected at a wavelength of 505 nm. The fluorescence intensity represented the intracellular concentration of calcium ions. Usually, the line-scan mode was used for image recording, and the line-scan images were recorded with a speed of 1.54 or 1.92 ms per line along the longitudinal axis of the cell. After the sequential image recording, a two-dimensional image with 512×100 lines or 512×2000 lines was generated and saved for later analysis.
Additional calcium measurements were performed. […] The fluorescence dye Fluo-4 was added after 20 min. Fluo-4 is a calcium sensor, which is used for investigating the calcium increase in cells. In cardiomyocytes the dye serves for examining the contractility. During contraction and relaxation, the calcium concentrations differ in the cytosol of cardiomyocytes. The fluorescence intensity of Fluo-4 increases with an increasing calcium concentration, and a decreasing calcium concentration will cause reduced fluorescence intensity. A frequency could be calculated from the fluo-4 fluorescence oscillation by a time depended analysis, wherein the fluorescence was measured over a period of two hours. The ground state at the moment before application (black), the period 10 to 30 sec after application (dark grey) and 70 to 110 sec after application (light grey) were evaluated (FIG. 5). Application refers to the adding of PE or adrenaline. […] The statistical analysis was performed according to the method of analysis of variance (ANOVA).

[4] = Fluo-4, pre-incubation 2.5 μmol/L

**Q.** `COc1ccc(-c2coc3cc4oc(=O)c(C)c(C)c4cc23)cc1` [Compound 31413, 3-(4-methoxyphenyl)-5,6-dimethyl-furo[3,2-g]chromen-7-one] was tested. Which “amount of activated GTP-bound RhoA precipitated” value [1] did it give?
**A.** significantly decreased amount of activated GTP-bound RhoA; also recorded: less RhoA-GTP was precipitated

**Q.** What about the “beat rate after PE stimulation” value ([2]; 2.5 μmol/L compound) of the same molecule?
**A.** normalization of the beat rate

**Q.** And the “beat rate after PE stimulation” value ([2]; 25 μmol/L compound)?
**A.** arrest

**Q.** What about the “beat rate after PE stimulation” value ([2]; 50 μmol/L compound) of the same molecule?
**A.** arrest

**Q.** What about the “phenylephrine/alpha-adrenoceptor-induced increase in cardiac myocyte beating frequency” value ([2]; at 2.5, 10, 25 and 50 μmol/L) of the same molecule?
**A.** prevents

**Q.** What about the “adrenalin (beta-adrenoceptor)-induced increase in cardiac myocyte beating frequency” value [3] of the same molecule?
**A.** does not, however, affect

**Q.** And the “PE induced increase of beat rate” value [3, 4]?
**A.** inhibited only the PE induced increase of beat rate

**Q.** What about the “adrenaline induced increase of beat rate” value [3, 4] of the same molecule?
**A.** not the adrenaline induced one
